From US20070249670A1, “Glycogen Phosphorylase Inhibitor Compounds and Pharmaceutical Compositions Thereof” (SMITHKLINE BEECHAM CORPORATION, priority 2004, published 2007) come the findings set out here.

Structures can show the parent of a compound that is named as a salt.

The target of this assay is T1, human liver glycogen phosphorylase a (HLGPa) (Homo sapiens, UniProt P06737).
T1 construct: creating a full-length cDNA fused at the 5′ end to codons for methionine-glycine-alanine-histidine; 6xHis tag (leader Met-Gly-Ala-His6-Gly-Gly) (N); made in house; host or cells: E. coli (bacterial expression plasmid pTXK1007LTev)
T1 sequence (P06737 2-847 limits assumed): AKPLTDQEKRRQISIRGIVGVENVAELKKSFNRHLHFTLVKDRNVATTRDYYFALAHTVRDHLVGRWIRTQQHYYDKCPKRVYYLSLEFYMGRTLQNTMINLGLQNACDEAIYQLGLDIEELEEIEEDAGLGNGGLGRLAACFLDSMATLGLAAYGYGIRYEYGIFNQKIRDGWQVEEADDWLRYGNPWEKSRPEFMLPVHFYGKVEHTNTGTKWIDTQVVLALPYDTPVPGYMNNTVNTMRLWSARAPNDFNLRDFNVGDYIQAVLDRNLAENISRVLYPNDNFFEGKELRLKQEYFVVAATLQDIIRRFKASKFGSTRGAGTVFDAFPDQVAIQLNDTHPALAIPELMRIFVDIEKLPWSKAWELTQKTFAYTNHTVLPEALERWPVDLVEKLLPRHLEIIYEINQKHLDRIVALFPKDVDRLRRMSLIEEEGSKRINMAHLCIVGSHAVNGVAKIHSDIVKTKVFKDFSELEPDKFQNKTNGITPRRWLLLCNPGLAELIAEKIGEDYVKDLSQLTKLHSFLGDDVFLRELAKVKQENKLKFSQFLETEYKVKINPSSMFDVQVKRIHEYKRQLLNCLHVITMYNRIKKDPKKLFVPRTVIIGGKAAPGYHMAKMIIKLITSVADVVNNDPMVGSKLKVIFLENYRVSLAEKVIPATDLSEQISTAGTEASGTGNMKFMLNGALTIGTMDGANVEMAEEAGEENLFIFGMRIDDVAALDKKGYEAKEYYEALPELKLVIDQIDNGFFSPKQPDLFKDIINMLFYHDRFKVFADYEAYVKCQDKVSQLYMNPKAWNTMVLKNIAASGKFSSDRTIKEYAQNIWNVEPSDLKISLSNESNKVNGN
Put plainly: Human liver glycogen phosphorylase a enzymatic activity assay (coupled, fluorescent resorufin readout, with and without 10 mM glucose). Format: biochemical.

Setting [1] is: human liver glycogen phosphorylase a enzymatic activity assay.
Where [2] appears, read: human liver glycogen phosphorylase a, table does not say whether with or without 10 mM glucose.

The term IC50 denotes the concentration that inhibits the measured activity by half. A lower IC50 goes with inhibition by little substance. For the compound `CC[C@H](C)[C@H](NC(=O)c1cc(F)c(F)cc1NC(=O)Nc1c(C)cccc1C)C(=O)O` [Example 80, N-[2-({[(2,6-dimethylphenyl)amino]carbonyl}amino)-4,5-difluorobenzoyl]-L-isoleucine], 8730 nM corresponded to half-maximal inhibition under setting [1] (IC50).

Under setting [2], `COc1ccc(-c2ccc(C(=O)NC3(C(=O)O)CCCCCCC3)c(NC(=O)Nc3c(C)cc(C)cc3C)c2)cc1F` [Example 238, 1-({[3′-Fluoro-4′-(methyloxy)-3-({[(2,4,6-trimethylphenyl)amino]carbonyl}amino)-4-biphenylyl]carbonyl}amino)cyclooctanecarboxylic acid] displayed an IC50 of 10 nM. Regarding `Cc1cccc(Cl)c1NC(=O)Nc1cc(Cl)ccc1C(=O)N[C@@H](CC(=O)O)C(=O)O` [Example 88, N-[4-chloro-2-({[(2-chloro-6-methylphenyl)amino]carbonyl}amino)benzoyl]-L-aspartic acid], the IC50 under setting [1] was 5200 nM. Compound `Cc1cc(Br)cc(C)c1NC(=O)Nc1cc2ccccc2cc1C(=O)NC1(C(=O)O)CCCCCC1` [Example 308, 1-({[3-({[(4-bromo-2,6-dimethylphenyl)amino]carbonyl}amino)-2-naphthalenyl]carbonyl}amino)cycloheptanecarboxylic acid] displayed an IC50 under setting [2] of 250 nM. As for `Cc1cccc(C)c1NC(=O)Nc1cc2ccccc2cc1C(=O)N[C@@H](Cc1cnc[nH]1)C(=O)O` [Example 50, N-[3-({[(2,6-dimethylphenyl)amino]carbonyl}amino)-2-naphthoyl]-L-histidine trifluoroacetate], inhibition under setting [1] was half-maximal at 2300 nM (IC50). This lies in the single-digit micromolar range. Compound `Cc1cc(C)c(NC(=O)Nc2cc3ccccc3cc2C(=O)N[C@@H](CC(=O)O)C(=O)O)c(C)c1` [Example 354, N-{[3-({[(2,4,6-trimethylphenyl)amino]carbonyl}amino)-2-naphthalenyl]carbonyl}-L-aspartic acid] had an IC50 under setting [2] of 61 nM.

Consider `Cc1cccc(C(C)C)c1NC(=O)Nc1sc2c(c1C(=O)N[C@@H](CC(=O)O)C(=O)O)CCCC2` [Example 135, N-{[2-({[(2-isopropyl-6-methylphenyl)amino]carbonyl}amino)-4,5,6,7-tetrahydro-1-benzothien-3-yl]carbonyl}-L-aspartic acid], for which it took 17900 nM to reach half-maximal inhibition under setting [1] (IC50).

`Cc1cc(C)c(NC(=O)Nc2cc(F)ccc2C(=O)N[C@@H](CCNC(=O)OC(C)(C)C)C(=O)O)c(C)c1` [Example 515, (2S)-4-({[(1,1-dimethylethyl)oxy]carbonyl}amino)-2-({[4-fluoro-2-({[(2,4,6-trimethylphenyl)amino]carbonyl}amino)phenyl]carbonyl}amino)butanoic acid] registered an IC50 under setting [1] of 1900 nM. This IC50 lies about 9.4-fold lower than the previous one. Regarding `Cc1cc(C)c(NC(=O)Nc2cc3ccccc3nc2C(=O)NC2(C(=O)O)CCCCCCC2)c(C)c1` [Example 307, 1-({[3-({[(2,4,6-trimethylphenyl)amino]carbonyl}amino)-2-quinolinyl]carbonyl}amino)cyclooctanecarboxylic acid], 2 nM corresponded to half-maximal inhibition under setting [2] (IC50). Under setting [1], `O=C(Cc1c(Cl)cccc1Cl)Nc1cc2ccccc2cc1C(=O)N[C@H](C(=O)O)C1CCCCC1` [Example 155, (2S)-cyclohexyl{[(3-{[(2,6-dichlorophenyl)acetyl]amino}-2-naphthalenyl)carbonyl]amino}ethanoic acid] gave an IC50 of 6800 nM. That is a single-digit micromolar value. Take `Cc1cccc(C)c1NC(=O)Nc1cc2ccccc2cc1C(=O)N(CC(=O)O)CC1CCCCC1` [Example 243, N-(cyclohexylmethyl)-N-{[3-({[(2,6-dimethylphenyl)amino]carbonyl}amino)-2-naphthalenyl]carbonyl}glycine]: the IC50 under setting [2] worked out at 1770 nM. The compound `COC(=O)[C@H](CC(N)=O)NC(=O)c1ccc(-c2ccc(OC)cc2)cc1NC(=O)Nc1c(C)cc(C)cc1C` [Example 377, methyl N^2-{[4′-(methyloxy)-3-({[(2,4,6-trimethylphenyl)amino]carbonyl}amino)-4-biphenylyl]carbonyl}-L-asparaginate] showed an IC50 under setting [2] of 9130 nM. The same measure, in the same setting: the figure for `Cc1cc(C)c(NC(=O)Nc2cc3ccccc3cc2C(=O)N[C@H](C#N)C2CCC(F)(F)CC2)c(C)c1` [Example 342, N—[(S)-cyano(4,4-difluorocyclohexyl)methyl]-3-({[(2,4,6-trimethylphenyl)amino]carbonyl}amino)-2-naphthalenecarboxamide] is 8600 nM. `CSCC[C@H](NC(=O)c1cc2ccccc2cc1NC(=O)Nc1c(C)cccc1C)C(=O)O` [Example 49, N-[3-({[(2,6-dimethylphenyl)amino]carbonyl}amino)-2-naphthoyl]-L-methionine]: the IC50 under setting [1] was determined as 1670 nM. This counts as single-digit micromolar. In the case of `Cc1cccc(Cl)c1NC(=O)Nc1sc2ccccc2c1C(=O)N[C@H](C(=O)O)C1CCCCC1` [Example 142, (2S)-({[2-({[(2-chloro-6-methylphenyl)amino]carbonyl}amino)-1-benzothien-3-yl]carbonyl}amino)(cyclohexyl)acetic acid], under setting [1], the IC50 turned out to be 1510 nM. On the same count and under the same terms, the figure for `COc1ccc(-c2cc(NC(=O)Nc3c(C)cc(C)cc3C)c(C(=O)N[C@@H](COC(C)(C)C)C(=O)O)s2)cc1` [Example 445, O-(1,1-dimethylethyl)-N-{[5-[4-(methyloxy)phenyl]-3-({[(2,4,6-trimethylphenyl)amino]carbonyl}amino)-2-thienyl]carbonyl}-L-serine] is 82 nM. In turn, `Cc1cccc(C)c1NC(=O)Nc1cc2ccccc2cc1C(=O)N[C@@H](Cc1cccs1)C(=O)O` [Example 98, N-{[3-({[(2,6-dimethylphenyl)amino]carbonyl}amino)-2-naphthalenyl]carbonyl}-3-(2-thienyl)-L-alanine] registered an IC50 under setting [1] of 540 nM. For `Cc1cc(F)ccc1-c1cc(C(=O)N[C@H](C(=O)O)C2CCCCC2)c(NC(=O)Nc2c(Cl)cccc2Cl)s1` [Example 421, (2S)-cyclohexyl({[2-({[(2,6-dichlorophenyl)amino]carbonyl}amino)-5-(4-fluoro-2-methylphenyl)-3-thienyl]carbonyl}amino)ethanoic acid], under setting [1], it took 1390 nM to reach half-maximal inhibition (IC50). Against the preceding compound, the IC50 is about 2.6-fold higher.

`Cc1cc(C)c(NC(=O)Nc2cc(-c3ccc(CN4CCOCC4)cc3)ccc2C(=O)N[C@H](C(=O)O)C2CCCCC2)c(C)c1` [Example 217, (2S)-cyclohexyl({[4′-(4-morpholinylmethyl)-3-({[(2,4,6-trimethylphenyl)amino]carbonyl}amino)-4-biphenylyl]carbonyl}amino)ethanoic acid] registered an IC50 under setting [2] of 9 nM. Take `Cc1ccccc1NC(=O)Nc1sc2ccccc2c1C(=O)N[C@H](C(=O)O)C1CCCCC1` [Example 141, (2S)-cyclohexyl({[2-({[(2-methylphenyl)amino]carbonyl}amino)-1-benzothien-3-yl]carbonyl}amino)acetic acid]: under setting [1], the IC50 worked out at 8710 nM.

As to `O=C(Nc1cc2ccccc2cc1C(=O)N[C@H](C(=O)O)C1CCCCC1)Nc1c(Cl)cccc1C(F)(F)F` [Example 160, (2S)-({3-[({[2-chloro-6-(trifluoromethyl)phenyl]amino}carbonyl)amino]-2-naphthoyl}amino)(cyclohexyl)ethanoic acid], the IC50 under setting [1] worked out at 68 nM. Under setting [1], `COc1cc(NC(=O)Nc2c(C)cccc2Cl)c(C(=O)N[C@@H](CC(C)C)C(=O)O)cc1OC` [Example 69, N-[2-({[(2-chloro-6-methylphenyl)amino]carbonyl}amino)-4,5-dimethoxybenzoyl]-L-leucine] registered an IC50 of 13800 nM.

With `Cc1cccc(Cl)c1NC(=O)Nc1sc2c(c1C(=O)N[C@@H](CC(=O)O)C(=O)O)CCCC2` [Example 134, N-{[2-({[(2-chloro-6-methylphenyl)amino]carbonyl}amino)-4,5,6,7-tetrahydro-1-benzothien-3-yl]carbonyl}-L-aspartic acid], half-maximal inhibition under setting [1] (IC50) required 3660 nM.

For the compound `COc1cc(NC(=O)Nc2ccccc2Cl)c(C(=O)N[C@@H](Cc2c[nH]c3ccccc23)C(=O)O)cc1OC` [Example 77, N-[2-({[(2-chlorophenyl)amino]carbonyl}amino)-4,5-dimethoxybenzoyl]-L-tryptophan trifluoroacetate], inhibition under setting [1] was half-maximal at 9050 nM (IC50). As for `Cc1cccc(Cl)c1NC(=O)Nc1cc(Cl)ccc1C(=O)N[C@@H](CC1CCCCC1)C(=O)O` [Example 125, N-[4-chloro-2-({[(2-chloro-6-methylphenyl)amino]carbonyl}amino)benzoyl]-3-cyclohexyl-L-alanine], the IC50 under setting [1] worked out at 28600 nM. For `Cc1cc(C)c(NC(=O)Nc2cc(F)ccc2C(=O)N[C@H](C(=O)O)C2CCCC2)c(C)c1` [Example 211, (2S)-Cyclopentyl({[4-fluoro-2-({[(2,4,6-trimethylphenyl)amino]carbonyl}amino)phenyl]carbonyl}amino)ethanoic acid], under setting [2], 290 nM corresponded to half-maximal inhibition (IC50).

The compound `Cc1cccc(Cl)c1NC(=O)Nc1cc2ccccc2cc1C(=O)N[C@@H](Cc1ccc(O)cc1)C(=O)O` [Example 64, N-[3-({[(2-chloro-6-methylphenyl)amino]carbonyl}amino)-2-naphthoyl]-L-tyrosine] returned an IC50 under setting [1] of 450 nM.
